These results are taken from US10537566B2, “Combinations comprising siponimod and laquinimod for the treatment of multiple sclerosis” (Novartis AG, priority 2014, dated 2020).

For series [1], the system named is experimental autoimmune encephalomyelitis (EAE). The series can be described thus: MOG/CFA/Pertussis toxin-induced EAE, treatment initiated during ongoing CNS damage. The class given is in vivo, C57Bl/6 mice. Conditions: 0.3 mg/kg siponimod, 10 mg/kg laquinimod or both, daily for 21 days after infiltration of immune cells into CNS; p<0.05. The procedure: (§1) Female C57Bl/6 mice were subcutaneously immunized with 200 μg recombinant MOG1-125 in CFA followed by one i.p. injection of 100 ng Pertussis toxin. Two days later an additional i.p. injection of 100 ng pertussis toxin was administered. Following infiltration of immune cells into the CNS to initiate tissue damage, the mice were randomized to either vehicle, 0.3 mg/kg siponimod, 10 mg/kg laquinimod or 0.3 mg/kg siponimod+10 mg/kg laquinimod and treated daily with said doses for 21 days.

The test system is the same in series [2]. The series can be described thus: MOG/CFA/Pertussis toxin-induced EAE, treatment initiated after severe CNS damage. The class given is in vivo, C57Bl/6 mice. Conditions: 0.3 mg/kg siponimod, 10 mg/kg laquinimod or both, daily for 30 days, from three days after first clinical symptoms; p<0.05. The procedure:
Female C57Bl/6 mice were subcutaneously immunized with 200 μg recombinant MOG1-125 in CFA followed by one i.p. injection of 100 ng Pertussis toxin. Two days later an additional i.p. injection of 100 ng pertussis toxin was administered. Three days after the first clinical symptoms, the mice were randomized to either vehicle, 0.3 mg/kg siponimod, 10 mg/kg laquinimod or 0.3 mg/kg siponimod+10 mg/kg laquinimod and treated daily with said doses for 30 days. Treatment initiated after severe CNSneurological disease and tissue damage has occurred. More specifically after that a severe CNS damage, which can be characterized by hind limb paralysis, had already occurred.

Series [3] deals with RRMS. Conditions: phase III, oral 0.6 mg once daily over 24 months; cited from earlier work.
Series [4] concerns lymphocytes. The series can be described thus: Lymphocyte reduction in MOG/CFA/Pertussis toxin-immunized C57/Bl6 mice. The class given is in vivo, C57Bl/6 mice. Conditions: 0.3 mg/kg siponimod, 10 mg/kg laquinimod or both, daily for 29 days, from three days after first clinical symptoms; p<0.05. The procedure:
as §1, with “Three days after” for “Following infiltration of immune cells into”, “first clinical symptoms,” for “CNS to initiate tissue damage,”, “29” for “21”, “days. The MOG/CFA/Pertussis toxin-induced experimental autoimmune encephalomyelitis model in C57/Bl6 mice is described in Quancard et al (Chem Biol. 19(9):1142-51, 2012).” for “days.”

The subject of series [5] is RRMS. Conditions: phase II, oral doses of 0.25 mg, 0.5 mg, 1.25 mg, 2 mg and 10 mg; cited from earlier work.
A short description of series [6]: Level of siponimod in blood, brain and cerebrospinal fluid (CSF) in mice. Conditions: female, mouse, C57Bl/6 mice, mean (SEM). The class given is in vivo. Here is the method:
Female C57Bl/6 mice were treated daily with 3 mg/kg siponimod, p.o. for 8 days. 8 hours after the last administration, animals were sacrificed and the levels of siponimod were measured in blood, brain and CSF.
Shown are mean values of 3-5 animals and standard error of the mean (in brackets).

SMILES strings stand for the structures. Read-outs that look alike come from different tables or passages of the source.

Consider `CCN(C(=O)c1c(O)c2c(Cl)cccc2n(C)c1=O)c1ccccc1` [laquinimod, 5-chloro-N-ethyl-4-hydroxy-1-methyl-2-oxo-N-phenyl-1,2-dihydroquinoline-3-carboxamide], for which the “daily disease severity / neurological paralysis / disease burden (FIG. 4)” value in series [1] is recorded as “did not significantly improve daily disease severity”. For the same compound, the “disease burden (cumulative EAE score) (FIG. 2)” value in series [2] is “did not significantly improve disease burden”. Also, in series [3], the “efficacy in treating RRMS” value was “showed efficacy”. Moreover, the “effect on lymphocytes (FIG. 1)” value in series [4] is listed as “did not significantly reduce lymphocytes”.

On to `CCc1cc(/C(C)=N/OCc2ccc(C3CCCCC3)c(C(F)(F)F)c2)ccc1CN1CC(C(=O)O)C1` [siponimod, 1-{4-[1-((E)-4-cyclohexyl-3-trifluoromethyl-benzyloxyimino)-ethyl]-2-ethyl-benzyl}-azetidine-3-carboxylic acid], for which, in series [1], the “daily disease severity / neurological paralysis / disease burden (FIG. 4)” value is “transiently reduced neurological paralysis”. Further, the “efficacy in treating RRMS” value in series [5] is listed as “dose-dependent efficacy”. The “disease burden (cumulative EAE score) (FIG. 2)” value in series [2] was “reduced disease burden”. Also, the concentration at 8 h in series [6] (CSF, oral, EAE, 3 mg/kg qd, day 8, 8 h, read-out: conc siponimod (nM) (SEM) CSF) stood at 17.7 nM; in series [6] (CSF, po, 3 mg/kg qd p.o., day 8, 8 h after last administration, read-out: conc siponimod (nM) (SEM) CSF), 7.2 nM; in series [6] (blood, oral, EAE, 3 mg/kg qd, day 8, 8 h, read-out: conc siponimod (nM) (SEM) Blood) it was 1600 nM; in series [6] (blood, po, 3 mg/kg qd p.o., day 8, 8 h after last administration, read-out: conc siponimod (nM) (SEM) Blood), 973 nM; in series [6] (brain, oral, EAE, 3 mg/kg qd, day 8, 8 h, read-out: conc siponimod (nM) (SEM) Brain), 9190 nM; in series [6] (brain, po, 3 mg/kg qd p.o., day 8, 8 h after last administration, read-out: conc siponimod (nM) (SEM) Brain), 5550 nM. Besides, in series [4], the “effect on lymphocytes (FIG. 1)” value was “reduced lymphocytes”.
